Experimental data reported in patent US20180072738A1, “SOLVATED FORMS OF A BRUTON'S TYROSINE KINASE INHIBITOR” (Pharmacyclics LLC, priority 2015, published 2018).
Like-named read-outs stand apart in the source and are kept apart here. One block for each compound: values may come before it.

How the values were obtained:
[1] = Storage stability of the crystalline form at 40° C./75% RH (XRPD); format: physicochemical; conditions: for crystalline form after storage: storage at 40° C. and 75% RH, duration not stated
Description: X-Ray powder diffraction patterns were collected on a Bruker AXS C2 GADDS or Bruker AXS D8 diffractometer.
X-Ray Powder Diffraction patterns were collected on a Bruker AXS C2 GADDS diffractometer using Cu Ka radiation (40 kV, 40 mA), automated XYZ stage, laser video microscope for auto-sample positioning and a Hi Star 2-dimensional area detector. X-ray optics consists of a single Gobel multilayer mirror coupled with a pinhole collimator of 0.3 mm. A weekly performance check is carried out using a certified standard NIST 1976 Corundum (flat plate). The beam divergence, i.e. the effective size of the X-ray beam on the sample, was approximately 4 mm. A θ-θ continuous scan mode was employed with a sample-detector distance of 20 cm which gives an effective 2θ range of 3.2°-29.7°. Typically the sample would be exposed to the X-ray beam for 120 seconds. The software used for data collection was GADDS for XP/2000 4.1.43 and the data were analysed and presented using Diffrac Plus EVA v15.0.0.0.
X-Ray Powder Diffraction patterns were collected on a Bruker D8 diffractometer using Cu Ka radiation (40 kV, 40 mA), θ-2θ goniometer, and divergence of V4 and receiving slits, a Ge monochromator and a Lynxeye detector. The instrument is performance checked using a certified Corundum standard (NIST 1976). The software used for data collection was Diffrac Plus XRD Commander v2.6.1 and the data were analysed and presented using Diffrac Plus EVA v15.0.0.0. Samples were run under ambient conditions as flat plate specimens using powder as received. The sample was gently packed into a cavity cut into polished, zero-background (510) silicon wafer. The sample was rotated in its own plane during analysis. The details of the data collection are: • Angular range: 2 to 42° 2θ • Step size: 0.05° 2θ • Collection time: 0.5 s/step

OCI-Ly10 = experiment: Growth inhibition of OCI-Ly10 (ABC-DLBCL) cells; format: cell-based; conditions: Homo sapiens
OCILy10 = experiment: Induction of apoptosis in OCI-Ly10 (caspase activation, Annexin-V flow cytometry, sub-G0 fraction); format: cell-based; conditions: increase in sub-G0 fraction

- crystalline form after storage ([1]; listed as 1,1,2-trichloroethane solvate of Compound 1): changes to a Form A
Structure (SMILES): C=CC(=O)N1CCC[C@@H](n2nc(-c3ccc(Oc4ccccc4)cc3)c3c(N)ncnc32)C1 [listing 1 of 3 here]

- Crystallinity after storage ([1]; one week storage at 40° C./75% RH, XRPD): unaffected
Structure (SMILES): C=CC(=O)N1CCC[C@@H](n2nc(-c3ccc(Oc4ccccc4)cc3)c3c(N)ncnc32)C1 [listing 2 of 3 here]

- crystalline form after storage ([1]; listed as benzyl acetate solvate of Compound 1): does not change
Structure (SMILES): C=CC(=O)N1CCC[C@@H](n2nc(-c3ccc(Oc4ccccc4)cc3)c3c(N)ncnc32)C1 [listing 3 of 3 here]

- EC50 (OCI-Ly10; OCI-Ly10, 1 hour pulse, read-out: EC50 1 hour pulse (growth of OCI-Ly10)): 50 nM
- EC50 (OCI-Ly10; OCI-Ly10, continuous exposure, read-out: EC50 continuous exposure (growth of OCI-Ly10)): 10 nM
Structure (SMILES): C=CC(=O)N1CCC[C@@H](n2nc(-c3ccc(Oc4ccccc4)cc3)c3c(N)ncnc32)C1 [Compound 1, 1-((R)-3-(4-amino-3-(4-phenoxyphenyl)-1H-pyrazolo[3,4-d]pyrimidin-1-yl)piperidin-1-yl)prop-2-en-1-one]
- induction of apoptosis (OCILy10): observed
